Data: US5929110A, “Fatty acid analogs and prodrugs” (G. D. Searle & Co., priority 1998, dated 1999)
Read-outs that look alike come from different tables or passages of the source.

Columns and labels:
[1] = biological half-life in rat hepatic S9 preparation; type: in vitro ADME; settings: liver s9, rat hepatic S9, approximately 2 mcg/mL, 37° C.
Procedure: Various illustrative compounds synthesized in Examples above were tested for biological half-life. Compounds were incubated at a concentration of approximately 2 mcg/mL in a rat liver S9 preparation which was prepared according to standard procedures with minor modifications^1. The reactions were conducted at 37° C. in a water bath and stopped by the addition of ice cold methanol at various times ranging from 0 to 20 minutes. Aliquots of the incubations were analyzed by high performance liquid chromatography (HPLC) for the compound of interest. The analyses were conducted on a Waters HPLC system consisting of a model 510 pump and a Wisp model 712 automatic injector. Waters C18 columns were used to perform the separations. The compounds were detected by UV adsorption. The mobile phases consisted of acetonitrile and sodium phosphate buffer (40 mM, pH 3.5); specific conditions were varied slightly for each compound. Concentrations of each compound were determined with time and the rate of metabolism was determined by analyzing the data using the CSTRIP program^2.
^1 Subcellular Fractionation of Rat Liver. S. Fleischer and M. Kervina in Methods of Enzymology, Vol. XXXI, Biomembranes Part A, S. Fleischer and L. Packer Eds., pp. 6-41 (1974).
^2 A. T. Sedman and J. G. Warner, "CSTRIP. A Fortran IV Computer Program for Obtaining Initial Polyexponential Parameter Estimates.", J. Pharm. Sci. 65, 1006-1010 (1976).

HIV-1 = test: inhibition of HIV-1; reduction of cytopathogenic effect in virus-infected Leu-3a-positive CEM cells (MTT assay); type: cell-based, strain HTVL-IIIB; settings: Human immunodeficiency virus 1, CCRF-CEM, multiplicity of infection 0.1, MTT read on 7th to 9th day post-infection
Procedure: Inhibitory activity against HIV-1 was shown by tests involving plating of susceptible human host cells which are syncytium-sensitive with and without virus in microculture plates, adding various concentrations of the test compound, incubating the plates for 7 to 9 days (during which time infected, non-drug treated control cells are largely or totally destroyed by the virus), and then determining the remaining number of viable cells with a colorometric endpoint.
Various illustrative compounds synthesized above were tested for inhibition of HIV-1 in a test which measured reduction of cytopathogenic effect in virus-infected syncytium-sensitive Leu-3a-positive CEM cells grown in tissue culture as follows:
Tissue culture plates were incubated at 37° C. in a humidified, 5% CO2 atmosphere and observed microscopically for toxicity and/or cytopathogenic effect (CPE). At 1 hour prior to infection each test article was prepared from the frozen stock, and a 20 μl volume of each dilution (prepared as a 10× concentration) was added to the appropriate wells of both infected and uninfected cells.
Assays were done in 96-well tissue culture plates. CEM cells were treated with polybrene at a concentration of 2 μg/ml, and an 80 μl volume of cells (1×10^4 cells) was dispensed into each well. A 100 μl volume of each test article dilution (prepared as a 2× concentration) was added to 5 wells of cells, and the cells were incubated at 37° C. for 1 hour. A frozen culture of HIV-1, strain HTVL-IIIB, was diluted in culture medium to a concentration of 5×10^4 TCID50 per ml, and a 20 μl volume (containing 10^3 TCID50 of virus) was added to 3 of the wells for each test article concentration. […] A 20 μl volume of normal culture medium was added to the remaining wells to allow evaluation of cytotoxicity. Each plate contained 6 wells of untreated, uninfected, cell control samples and 6 wells of untreated, infected, virus control samples.
On the 7th to 9th day post-infection, the cells in each well were resuspended and a 100 μl sample of each cell suspension was removed for use in an MTT assay. A 20 μl volume of a 5 mg/ml solution of 3-(4,5-dimethylthiazol-2-yl)-2,5-diphenyltetrazolium bromide (MTT) was added to each 100 μl cell suspension, and the cells were incubated at 37° C. in 5% CO2 for 4 hours. […] A 100 μl volume of a solution of 10% sodium dodecyl sulfate in 0.01N hydrochloric acid was added to each sample, and the samples were incubated overnight. The absorbance at 590 nm was determined for each sample using a Molecular Devices Vmax microplate reader. This assay detects drug-induced suppression of viral CPE, as well as drug cytotoxicity, by measuring the generation of MTT-formazan by surviving cells.

[2] = 0 to 20 minutes, read-out: Half-life

Row | SMILES | half-life [1, 2] | EC50 (HIV-1) | half-life ([1]; read-out: Half-life (not detected at initial sampling))
1 | COCCCCCCCCCCCC(=O)NCc1ccccc1 [Example 14, 12-Methoxy-N-(phenylmethyl)dodecanamide] | 2.41 min | 3.8 µM | –
2 | CCOC(=O)c1cccc(NC(=O)CCCCCCCCCCCOC)c1 [Example 17, Ethyl 3-[(12-Methoxy-1-oxododecyl)amino]-benzoate] | – | 8.2 µM | < 5 min
3 | COCCCCCCCCCCCC(=O)Nc1cccc(C(=O)O)c1 [Example 18, 3-[(12-Methoxy-1-oxododecyl)amino]benzoic acid] | 8.46 min | > 285 µM | –
4 | CCOC(=O)[C@@H](NC(=O)CCCCCCCCCCCOC)[C@@H](C)CC [Example 45, N-(12-Methoxy-1-oxododecyl)-L-isoleucine, Ethyl ester] | – | < 2.7 µM | –
5 | CCOC(=O)[C@H](NC(=O)CCCCCCCCCCCOC)[C@H](C)CC [Example 48, N-(12-Methoxy-1-oxododecyl)-D-isoleucine, Ethyl ester] | – | > 265 µM | –
6 | CCOC(=O)[C@H](Cc1ccccc1)NC(=O)CCCCCCCCCCCOC [Example 49, N-(12-Methoxy-1-oxododecyl)-L-phenylalanine, Ethyl ester] | 1.07 min | 5.4 µM | –
7 | COCCCCCCCCCCCC(=O)N[C@@H](Cc1ccccc1)C(=O)OC(C)(C)C [Example 50, N-(12-Methoxy-1-oxododecyl)-L-phenylalanine, 1,1-Dimethylethyl ester] | – | 11.1 µM | –
8 | CCOC(=O)[C@@H](Cc1ccccc1)NC(=O)CCCCCCCCCCCOC [Example 52, N-(12-Methoxy-1-oxododecyl)-D-phenylalanine, Ethyl ester] | – | > 245 µM | –
9 | COCCCCCCCCCCCC(=O)N[C@H](Cc1ccccc1)C(=O)OC(C)(C)C [Example 54, N-(12-Methoxy-1-oxododecyl)-D-phenylalanine, 1,1-Dimethylethyl ester] | – | > 230 µM | –
10 | CCCCCCCCCCOCCC(=O)N[C@@H](Cc1ccccc1)C(=O)OCC [Example 55, N-(3-(Decycloxy)-1-oxopropyl]-L-phenylalanine, Ethyl ester] | – | > 240 µM | –
11 | CCCCCCCCCCOCCC(=O)N[C@H](Cc1ccccc1)C(=O)OCC [Example 56, N-(3-(Decyloxy)-1-oxopropyl]-D-phenylalanine, Ethyl ester] | 1.97 min | > 240 µM | –
12 | CCOC(=O)[C@H](CCC(=O)OCc1ccccc1)NC(=O)CCCCCCCCCCCOC [Example 59, N-(12-methoxy-1-oxododecyl)-L glutamic acid, 1-Ethyl 5-(Phenylmethyl) ester] | – | 7.3 µM | –
13 | CCOC(=O)[C@@H](CCC(=O)OCc1ccccc1)NC(=O)CCCCCCCCCCCOC [Example 62, N-(12-methoxy-1-oxododecyl)-D-glutamic acid, 1-Ethyl 5-(Phenylmethyl) ester] | – | > 205 µM | –
14 | CCOC(=O)[C@H](CCCCNC(=O)OCc1ccccc1Cl)NC(=O)CCCCCCCCCCCOC [Example 65, N6-[[(2-Chlorophenyl)methoxy]carbonyl]-N2-(12-methoxy-1oxododecyl)-L-lysine, Ethyl ester] | – | 7.4 µM | –
15 | CCOC(=O)[C@@H](CCCCNC(=O)OCc1ccccc1Cl)NC(=O)CCCCCCCCCCCOC [Example 68, N6-[[(2-Chlorophenyl)methoxy]carbonyl]-N2-(12-methoxy-1-oxododecyl)-D-lysine, Ethyl ester] | 8.54 min | 13.1 µM | –
16 | CCOC(=O)[C@H](Cc1c[nH]c2ccccc12)NC(=O)CCCCCCCCCCCOC [Example 71, N-(12-Methoxy-1-oxododecyl)-L-tryptophan, Ethyl ester] | – | 18 µM | –
17 | CCOC(=O)[C@@H](Cc1c[nH]c2ccccc12)NC(=O)CCCCCCCCCCCOC [Example 74, N-(12-Methoxy-1-oxododecyl)-D-tryptophan, Ethyl ester] | – | > 221 µM | –
18 | CCOC(=O)[C@@H](NC(=O)CCCCCCCCCCCOC)[C@@H](C)OCc1ccccc1 [Example 77, N-(12-methoxy-1-oxododecyl)-O-(phenylmethyl)-L-threonine, Ethyl ester] | – | 11.8 µM | –
19 | CCOC(=O)[C@H](NC(=O)CCCCCCCCCCCOC)[C@H](C)OCc1ccccc1 [Example 80, N-(12-methoxy-1-oxododecyl)-O-(phenylmethyl)-D-threonine, Ethyl ester] | – | > 225 µM | –
20 | COCCCCCCCCCCCC(=O)NCC(=O)O [Example 81] | – | 27.5 µM | –
21 | COCCCCCCCCCCCC(=O)N[C@@H](Cc1ccccc1)C(=O)O [Example 82, N-(12-Methoxy-1-oxododecyl)-L-phenylalanine] | – | 13 µM | –
22 | COCCCCCCCCCCCC(=O)N[C@H](Cc1ccccc1)C(=O)O [Example 83, N-(12-Methoxy-1-oxododecyl)-D-phenylalanine] | – | > 265 µM | –
23 | COCCCCCCCCCCCC#N [Example 84, 12-Methoxydodecanenitrile] | – | > 470 µM | –
24 | COCCCCCCCCCCCc1nnn[nH]1 [Example 85, 5-(11-Methoxyundecyl)-1H-tetrazole] | – | > 390 µM | –
25 | CCn1nnnc1CCCCCCCCCCCOC [Example 86A, 1-Ethyl-5-(11-methoxyundecyl)-1H-tetrazole] | – | > 350 µM | –
26 | CCn1nnc(CCCCCCCCCCCOC)n1 [Example 86B, 2-Ethyl-5-(11-methoxyundecyl)-2H-tetrazole] | – | > 350 µM | –
27 | COCCCCCCCCCCCc1nnnn1Cc1ccccc1 [Example 87A, 5-(11-Methoxyundecyl)-1-(phenylmethyl)-1H-tetrazole] | – | > 290 µM | –
28 | COCCCCCCCCCCCc1nnn(Cc2ccccc2)n1 [Example 87B, 5-(11-Methoxyundecyl)-2-(phenylmethyl)-2H-tetrazole] | – | > 290 µM | –
29 | COCCCCCCCCCCCCO [Example 88, 12-Methoxydodecanol] | – | > 450 µM | –
30 | COCCCCCCCCCCCC(C)=O [Example 89, 13-Methoxy-2-tridecanone] | – | > 430 µM | –
